Laboratory results taken from patent US9408835B2, “Pharmaceutical composition for oral administration” (ASTELLAS PHARMA INC., priority 2013, dated 2016).
Values after ≈ are worked out from the molar mass of the structure shown. Like-named read-outs stand apart in the source and are kept apart here.

Tests used:
Janus kinase 3 = molecular target: T1, Janus kinase 3 (Homo sapiens, UniProt P52333); settings: reported in Patent literature 1; cited from earlier work
T1 sequence (P52333 1-1124): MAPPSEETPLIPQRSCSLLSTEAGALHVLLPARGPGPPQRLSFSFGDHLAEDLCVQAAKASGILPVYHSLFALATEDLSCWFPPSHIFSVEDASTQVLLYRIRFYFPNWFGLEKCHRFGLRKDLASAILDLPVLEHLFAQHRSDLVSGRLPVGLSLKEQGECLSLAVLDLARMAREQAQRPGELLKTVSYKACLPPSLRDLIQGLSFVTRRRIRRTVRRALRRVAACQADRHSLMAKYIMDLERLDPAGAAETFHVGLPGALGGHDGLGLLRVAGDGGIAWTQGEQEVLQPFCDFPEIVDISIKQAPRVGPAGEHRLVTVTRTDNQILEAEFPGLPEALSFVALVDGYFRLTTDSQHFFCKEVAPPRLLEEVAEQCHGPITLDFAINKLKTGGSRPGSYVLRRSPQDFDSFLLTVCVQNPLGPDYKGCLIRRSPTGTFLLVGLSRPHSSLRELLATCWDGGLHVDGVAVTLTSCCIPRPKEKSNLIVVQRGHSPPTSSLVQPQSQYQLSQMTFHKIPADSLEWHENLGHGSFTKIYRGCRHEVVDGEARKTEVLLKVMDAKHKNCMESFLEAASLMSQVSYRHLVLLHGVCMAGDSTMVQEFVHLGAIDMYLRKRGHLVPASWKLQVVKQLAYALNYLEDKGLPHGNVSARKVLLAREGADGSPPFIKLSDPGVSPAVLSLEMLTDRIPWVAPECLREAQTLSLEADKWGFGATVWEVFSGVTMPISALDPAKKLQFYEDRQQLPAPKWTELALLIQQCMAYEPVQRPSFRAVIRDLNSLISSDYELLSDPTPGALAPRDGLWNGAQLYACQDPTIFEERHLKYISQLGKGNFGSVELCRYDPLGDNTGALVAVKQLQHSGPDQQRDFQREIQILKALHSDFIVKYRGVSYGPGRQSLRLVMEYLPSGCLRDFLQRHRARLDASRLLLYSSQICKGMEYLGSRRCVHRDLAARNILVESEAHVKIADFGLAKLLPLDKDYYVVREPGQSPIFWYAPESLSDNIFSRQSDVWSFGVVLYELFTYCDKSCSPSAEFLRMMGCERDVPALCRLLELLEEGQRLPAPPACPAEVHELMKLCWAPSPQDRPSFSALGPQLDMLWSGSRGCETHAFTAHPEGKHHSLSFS

[1] = Solubility of compound A in dissolution test fluids and water; format: physicochemical

NC(=O)c1cnc2[nH]ccc2c1N[C@@H]1[C@@H]2CC3C[C@H]1C[C@@](O)(C3)C2 [compound A, 4-{[(1R,2s,3S,5s,7s)-5-hydroxy-2-adamantyl]amino}-1H-pyrrolo[2,3-b]pyridine-5-carboxamide]
JAK3 inhibitory activity (Janus kinase 3): superior
difference in solubility between acidic and neutral pH range ([1]; JP1 pH 1.2 vs pH 6.8): about 1,000 times
solubility ([1]; Japanese Pharmacopoeia, aqueous buffer, 2nd fluid for dissolution test JP2 (pH 6.8), read-out: solubility at a neutral pH range): ~0.008 mg/mL (≈ 0.0245 mM)
solubility ([1]; Japanese Pharmacopoeia, simulated gastric fluid, 1st fluid for dissolution test JP1 (pH 1.2), read-out: solubility at an acidic pH range): ~8.6 mg/mL (≈ 26.3 mM)
solubility ([1]; aqueous buffer, pH 6.8 phosphate buffer, USP, read-out: solubility at a neutral pH range): ~0.011 mg/mL (≈ 0.0337 mM)
solubility ([1]; water, read-out: solubility in water): ~12.5 mg/mL (≈ 38.3 mM)
